Experimental findings from patent publication US6448229B2, “Gamma secretase inhibitors” (Merck Sharp & Dohme Ltd., priority 2000, dated 2002) are described below.

This assay relates to Notch signalling. Briefly: Xenopus developmental assay for Notch activity (tail bud formation). In kind it is in vivo, Xenopus laevis. Conditions: Xenopus embryos cultured with compound from stage 15 to stage 40. On the procedure: The following assay was used to determine the effect of compounds on Notch signalling.
Xenopus embryos were cultured in 1/10 NAM [Beck & Slack, Development, 126, 1611-1620, 1999] supplemented with protease inhibitors ([…] stock in DMSO) from stage 15 [P. D. Nieuwkoop and J. Faber, Normal table of Xenopus laevis, Daudin 1967, Reprinted Garland 1994] (24 hours), to stage 40 (3 days). Control siblings were incubated in 1/10 NAM containing 0.05% DMSO. At 3 days they were fixed in batches of 20 and measured using a graduated eyepiece on a Wild dissecting microscope set to 25×. Each tadpole was measured from head to proctodaeum (head and trunk) and from proctodaeum to tail tip (tail). Tail buds were extirpated at stage 30 and cultured for 24 hours as described previously [Tucker & Slack, Development, 121, 249-262, 1995]. Somites were detected by staining with monoclonal antibody 12/101 [Kintner & Brockes, Nature, 308, 67-69, 1984], as described elsewhere [Tucker & Slack, 1995]. In situ hybridisation for Xhox3 has been previously described [Beck & Slack, Mech. Dev., 72, 41-52, 1998].

Regarding `CC(NC(=O)Cc1cc(F)cc(F)c1)C(=O)NC(C(=O)NCC1CN(c2ccccc2)CCO1)c1ccccc1` (mixture of isomers) [Example 1, 2-[2-(3,5-Difluorophenyl)acetylamino]-N-{phenyl[(4-phenylmorpholin-2-ylmethyl)carbamoyl]methyl}propionamide], the “inhibition of tail bud formation” value is recorded as “did not significantly inhibit tail bud formation”.
